Laboratory results from paper PMC10755728, “Inhibitors of the Elastase LasB for the Treatment of Pseudomonas aeruginosa Lung Infections” (ACS Central Science, 2023).
Like-named read-outs stand apart in the source and are kept apart here.

What was measured:
LasB = biological target: T1, LasB (Pseudomonas aeruginosa, UniProt Q02RJ6); experiment: biochemical; format: biochemical; conditions: for inhibition at 100 µM: read-out: % inh LasB @100 µM
T1 construct: made in house

ColH-PD = ColH-PD (Hathewaya histolytica, UniProt Q46085); experiment: biochemical; format: biochemical, Clostridium histolyticum; conditions: read-out: % inhibition ColH-PD @1 µM
TACE = biological target: T2, TACE (Homo sapiens, UniProt P78536); experiment: TACE inhibitor screening kit; format: biochemical; conditions: read-out: % inhibition TACE
T2 construct: purchased Sigma-Aldrich (Saint Louis, MO)

MMP-3 = biological target: T3, MMP-3 (Homo sapiens, UniProt P08254); experiment: MMP-3 inhibition assay; format: biochemical; conditions: read-out: % inhibition MMP-3
T3 construct: purchased AnaSpec (Fremont, CA, USA)

Calu-3 permeability = format: in vitro ADME; conditions: human
MMP-2 = biological target: T4, MMP-2 (Homo sapiens, UniProt P08253); experiment: MMP-2 inhibition assay; format: biochemical; conditions: read-out: % inhibition MMP-2
T4 construct: purchased AnaSpec (Fremont, CA, USA)
T4 sequence (P08253 110-660): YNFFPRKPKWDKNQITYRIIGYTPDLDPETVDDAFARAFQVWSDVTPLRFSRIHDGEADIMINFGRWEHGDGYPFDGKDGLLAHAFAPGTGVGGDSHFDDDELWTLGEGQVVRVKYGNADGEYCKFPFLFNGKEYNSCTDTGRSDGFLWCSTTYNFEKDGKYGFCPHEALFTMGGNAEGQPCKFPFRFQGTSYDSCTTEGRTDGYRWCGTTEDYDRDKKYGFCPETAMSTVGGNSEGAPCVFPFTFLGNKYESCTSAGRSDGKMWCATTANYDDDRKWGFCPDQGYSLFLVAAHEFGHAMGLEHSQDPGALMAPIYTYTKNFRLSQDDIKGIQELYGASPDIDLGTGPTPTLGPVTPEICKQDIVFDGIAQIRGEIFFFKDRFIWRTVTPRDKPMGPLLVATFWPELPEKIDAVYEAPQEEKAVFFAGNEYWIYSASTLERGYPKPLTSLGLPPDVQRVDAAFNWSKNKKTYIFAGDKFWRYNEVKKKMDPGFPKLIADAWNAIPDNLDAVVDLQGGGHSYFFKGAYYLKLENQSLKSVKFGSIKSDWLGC

[1] = Metabolic stability in human liver S9 fraction; format: in vitro ADME
HDAC-3 = biological target: T5, HDAC-3 (Homo sapiens, UniProt O15379); experiment: HDAC-3 inhibitor screening kit; format: biochemical
T5 construct: purchased Sigma-Aldrich (Saint Louis, MO)

[2] = Lipophilicity determination (LogD7.4, HPLC-MS); format: physicochemical; conditions: pH 7.4, pH 7.4, chromatographic
Method: Lipophilicity determination. LogD7.4 was analyzed using an HPLC−MS based method.50 The retention time of 12 compounds with known LogD7.4 was determined and plotted toward their LogD7.4. Linear regression was used to determine the LogD7.4 of unknown compounds. Analysis was performed using a Dionex Ultimate 3000 HPLC system coupled to a TSQ Quantum Access MAX (Thermo Fisher, Dreieich, Germany) with the following conditions: EC150/2 NUCLEODUR C18 Pyramid column, 5 μM (Macherey Nagel, Düren, Germany); eluent A: 50 mM NH4OAc pH 7.4, eluent B: acetonitrile, and flow: 0.6 mL/min.

HDAC-8 = biological target: T6, HDAC-8 (Homo sapiens, UniProt Q9BY41); experiment: HDAC-8 inhibitor screening kit; format: biochemical
T6 construct: purchased Sigma-Aldrich (Saint Louis, MO)
T6 sequence (Q9BY41 1-377): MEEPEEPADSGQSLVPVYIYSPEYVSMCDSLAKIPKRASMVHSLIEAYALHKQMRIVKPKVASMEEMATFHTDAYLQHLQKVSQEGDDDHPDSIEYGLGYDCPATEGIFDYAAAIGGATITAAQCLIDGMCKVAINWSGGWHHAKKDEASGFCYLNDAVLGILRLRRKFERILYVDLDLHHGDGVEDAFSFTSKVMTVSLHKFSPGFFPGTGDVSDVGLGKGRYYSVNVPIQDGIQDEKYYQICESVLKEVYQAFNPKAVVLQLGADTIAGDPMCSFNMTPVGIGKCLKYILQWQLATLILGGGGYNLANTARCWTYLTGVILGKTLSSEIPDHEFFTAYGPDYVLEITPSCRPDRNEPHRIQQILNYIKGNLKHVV

[3] = Metabolic stability in mouse liver S9 fraction; format: in vitro ADME
MMP-1 = biological target: T7, MMP-1 (Homo sapiens, UniProt P03956); experiment: MMP-1 inhibition assay; format: biochemical; conditions: read-out: % inhibition MMP-1
T7 construct: purchased AnaSpec (Fremont, CA, USA)
T7 sequence (P03956 100-469): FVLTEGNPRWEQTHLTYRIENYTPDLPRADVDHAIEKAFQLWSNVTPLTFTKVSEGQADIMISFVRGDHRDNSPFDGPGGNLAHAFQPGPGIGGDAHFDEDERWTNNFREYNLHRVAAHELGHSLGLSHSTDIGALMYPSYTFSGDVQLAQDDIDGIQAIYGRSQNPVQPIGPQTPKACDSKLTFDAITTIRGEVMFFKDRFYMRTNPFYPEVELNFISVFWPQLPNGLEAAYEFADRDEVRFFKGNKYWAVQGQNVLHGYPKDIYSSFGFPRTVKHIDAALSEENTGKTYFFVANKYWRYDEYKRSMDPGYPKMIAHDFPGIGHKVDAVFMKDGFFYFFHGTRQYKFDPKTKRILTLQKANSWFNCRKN

Plasma stability, mouse = format: in vitro ADME; conditions: mouse plasma; read-out: Plasma T1/2 Mouse
COX-1 = biological target: T8, COX-1 (Ovis aries, UniProt P05979); experiment: Fluorometric COX-1 inhibitor assay; format: biochemical, human
T8 construct: purchased Abcam (Cambridge, UK)
T8 sequence (P05979 25-600): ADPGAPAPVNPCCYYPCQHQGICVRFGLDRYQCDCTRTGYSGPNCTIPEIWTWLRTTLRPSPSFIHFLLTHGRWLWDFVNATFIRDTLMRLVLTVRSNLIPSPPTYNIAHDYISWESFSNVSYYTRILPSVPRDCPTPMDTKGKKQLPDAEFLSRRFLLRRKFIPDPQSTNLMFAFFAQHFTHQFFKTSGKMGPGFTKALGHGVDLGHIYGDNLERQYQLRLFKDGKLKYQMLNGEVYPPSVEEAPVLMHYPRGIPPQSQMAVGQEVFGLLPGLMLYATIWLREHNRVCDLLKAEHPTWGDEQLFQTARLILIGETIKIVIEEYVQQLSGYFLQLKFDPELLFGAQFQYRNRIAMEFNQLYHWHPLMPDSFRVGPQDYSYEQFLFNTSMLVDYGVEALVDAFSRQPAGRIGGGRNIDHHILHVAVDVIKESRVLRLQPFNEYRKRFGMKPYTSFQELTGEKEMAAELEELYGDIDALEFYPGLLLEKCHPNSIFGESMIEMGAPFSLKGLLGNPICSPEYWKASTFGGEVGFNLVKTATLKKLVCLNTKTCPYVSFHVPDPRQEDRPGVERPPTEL

P. aeruginosa PA14 = experiment: Bacterial growth inhibition assay; format: cell-based, Pseudomonas aeruginosa; conditions: Pseudomonas aeruginosa, PA14; 100 µM compound concentration; read-out: Percent (%) growth inhibition of P. aeruginosa PA14
Method: Bacterial growth inhibition assay. Assays regarding the determination of the MIC were
performed as described recently for P. aeruginosa PA14.58

HEK293 = conditions: human, 48 h, 100 µM
Method: Culturing of HepG2, A549 and HEK293 cells. The human hepatocellular carcinoma cell line HepG2, the lung adenocarcinoma cell line A549 and Human Embryonic (HEK) 293 cells were cultured in Dulbecco's Modified Eagle Medium (DMEM), containing 10% Fetal Bovine Serum
(FBS) and 1% penicillin-streptomycin mixture. Cells were maintained according to standard cell
Cytotoxicity assay. An MTT-based assay was employed to evaluate the viability of HepG2,
HEK293 and A549 cells after challenge with selected LasB inhibitors and performed as described

[4] = FRET-based assay, read-out: LasB IC50

T1 sequence (Q02RJ6 198-498): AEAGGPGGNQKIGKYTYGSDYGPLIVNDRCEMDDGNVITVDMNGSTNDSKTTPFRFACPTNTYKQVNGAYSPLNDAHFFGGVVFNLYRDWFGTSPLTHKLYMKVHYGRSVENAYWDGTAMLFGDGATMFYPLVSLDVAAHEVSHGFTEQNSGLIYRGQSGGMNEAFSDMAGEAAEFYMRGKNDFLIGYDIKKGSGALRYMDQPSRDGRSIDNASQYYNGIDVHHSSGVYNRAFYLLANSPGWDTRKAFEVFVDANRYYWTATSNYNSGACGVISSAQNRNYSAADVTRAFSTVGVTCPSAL
ColH-PD, sequence (Q46085 331-721 limits assumed): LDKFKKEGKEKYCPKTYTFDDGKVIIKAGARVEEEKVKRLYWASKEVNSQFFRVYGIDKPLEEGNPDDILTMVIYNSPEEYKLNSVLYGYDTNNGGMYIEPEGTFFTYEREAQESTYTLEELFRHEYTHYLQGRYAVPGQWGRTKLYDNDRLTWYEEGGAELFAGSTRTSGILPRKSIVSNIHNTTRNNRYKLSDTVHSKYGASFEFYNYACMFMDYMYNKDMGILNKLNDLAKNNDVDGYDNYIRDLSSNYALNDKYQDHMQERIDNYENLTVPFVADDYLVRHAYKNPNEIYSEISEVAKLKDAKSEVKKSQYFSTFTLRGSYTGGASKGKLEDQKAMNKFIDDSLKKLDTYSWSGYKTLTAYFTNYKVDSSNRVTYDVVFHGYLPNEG
T2 sequence (P78536 215-824): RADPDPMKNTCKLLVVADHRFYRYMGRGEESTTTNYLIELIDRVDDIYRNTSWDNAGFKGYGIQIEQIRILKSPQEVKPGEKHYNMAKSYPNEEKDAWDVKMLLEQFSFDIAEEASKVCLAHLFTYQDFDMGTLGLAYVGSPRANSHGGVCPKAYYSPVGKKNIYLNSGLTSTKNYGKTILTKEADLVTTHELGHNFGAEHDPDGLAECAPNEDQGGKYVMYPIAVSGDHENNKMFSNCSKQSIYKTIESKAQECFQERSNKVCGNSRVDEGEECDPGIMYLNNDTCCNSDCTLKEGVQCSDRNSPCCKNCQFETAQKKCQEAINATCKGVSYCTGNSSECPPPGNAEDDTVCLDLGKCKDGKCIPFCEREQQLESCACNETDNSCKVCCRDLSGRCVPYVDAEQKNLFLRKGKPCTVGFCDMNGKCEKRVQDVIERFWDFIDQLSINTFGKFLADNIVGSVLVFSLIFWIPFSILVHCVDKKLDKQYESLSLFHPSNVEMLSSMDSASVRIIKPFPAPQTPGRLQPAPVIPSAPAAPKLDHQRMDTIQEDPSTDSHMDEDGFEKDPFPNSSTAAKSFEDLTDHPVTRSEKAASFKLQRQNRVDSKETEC
T3 sequence (P08254 100-477): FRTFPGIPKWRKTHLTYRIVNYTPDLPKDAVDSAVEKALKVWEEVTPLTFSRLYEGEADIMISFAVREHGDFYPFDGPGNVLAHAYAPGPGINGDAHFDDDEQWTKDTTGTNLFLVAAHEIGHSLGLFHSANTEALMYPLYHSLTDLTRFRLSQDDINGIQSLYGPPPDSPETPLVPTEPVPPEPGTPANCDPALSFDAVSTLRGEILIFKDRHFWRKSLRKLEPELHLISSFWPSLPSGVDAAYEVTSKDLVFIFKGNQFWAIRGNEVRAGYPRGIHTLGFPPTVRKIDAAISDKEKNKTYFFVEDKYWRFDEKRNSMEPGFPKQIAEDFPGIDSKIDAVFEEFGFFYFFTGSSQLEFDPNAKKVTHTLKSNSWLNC
T5 sequence (O15379 whole entry): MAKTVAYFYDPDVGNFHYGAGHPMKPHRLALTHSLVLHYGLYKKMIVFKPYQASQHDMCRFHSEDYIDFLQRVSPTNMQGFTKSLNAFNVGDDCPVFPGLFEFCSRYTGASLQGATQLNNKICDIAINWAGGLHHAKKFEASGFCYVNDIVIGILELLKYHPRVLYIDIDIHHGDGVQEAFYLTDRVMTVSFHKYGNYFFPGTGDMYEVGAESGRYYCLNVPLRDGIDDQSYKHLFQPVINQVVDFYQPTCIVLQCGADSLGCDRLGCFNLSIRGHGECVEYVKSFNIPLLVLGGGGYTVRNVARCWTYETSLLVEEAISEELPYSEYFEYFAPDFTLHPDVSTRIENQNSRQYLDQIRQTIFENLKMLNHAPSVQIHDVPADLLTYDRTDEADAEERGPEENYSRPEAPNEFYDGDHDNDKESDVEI
T5 sequence (Q9Y618 395-489 partner limits assumed): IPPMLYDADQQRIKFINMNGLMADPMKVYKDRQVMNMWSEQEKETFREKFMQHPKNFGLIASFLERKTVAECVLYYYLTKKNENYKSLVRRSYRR

COc1ccc(NC(=O)C(CC(C)C)P(=O)(O)O)cc1 (stereo not shown) [Compound 4f]
IC50 (LasB; [4]): 51.8 ± 10.4 nM
inhibition at 1 µM (ColH-PD): < 10%

CC(C)CC(C(=O)Nc1ccc(C(N)=O)nc1)P(=O)(O)O (stereo not shown) [Compound 4r]
IC50 (LasB; LasB IC50, FRET-based assay): 220 ± 20 nM

CC(C)CC(C(=O)Nc1ccc(Cl)cn1)P(=O)(O)O (stereo not shown) [Compound 4p]
IC50 (LasB; [4]): 500 ± 40 nM
fold more potent than 4q (LasB; vs 4q): 2 fold

CCCC(C(=O)Nc1ccc(OC)cc1)P(=O)(O)O (stereo not shown) [Compound 4ab]
IC50 (LasB; LasB IC50, FRET-based assay): 1110 nM

CC(C)CC(C(=O)Nc1ccc(Br)cc1)P(=O)(O)O (stereo not shown) [Compound 4j]
IC50 (LasB; [4]): 48.6 ± 2.3 nM

Cc1ccc(NC(=O)C(CC(C)C)OS(N)(=O)=O)cc1 (stereo not shown) [Compound 3c]
IC50 (LasB; LasB IC50, FRET-based assay): 53000 ± 4000 nM

CCOC(=O)C(CC(C)C)C(=O)Nc1ccc(C)cc1 (stereo not shown) [Compound 3d]
inhibition at 100 µM (LasB): < 10%

CC(C)CC(C(=O)Nc1ccc(Cl)c(Cl)c1)P(=O)(O)O (stereo not shown) [Compound 4c]
IC50 (LasB; LasB IC50, FRET-based assay): 25.7 ± 4.1 nM
fold more active than 4-acetyl (4g) (LasB; vs 4g): 1.6 fold
inhibition at 1 µM (ColH-PD): < 10%

CC(C)CC(C(=O)Nc1ccc2ccccc2c1)P(=O)(O)O (stereo not shown) [Compound 4n]
IC50 (LasB; [4]): 63.6 ± 9.9 nM

CC(=O)c1ccc(NC(=O)CP(=O)(O)O)cc1 [Compound 2]
inhibition at 600 µM (LasB; read-out: % LasB inhibition @600 µM): 33 ± 4%

Cc1ccc(NC(=O)C(CC(C)C)S(=O)(=O)O)cc1 (stereo not shown) [Compound 3i]
inhibition at 100 µM (TACE; 100 μM): < 10%
inhibition at 100 µM (MMP-3; 100 μM): < 10%
IC50 (LasB; LasB IC50, FRET-based assay): 16000 nM
Papp at 300 min (Calu-3 permeability): 0.47 ± 0.36 ×10⁻⁶ cm/s
inhibition at 100 µM (MMP-2; 100 μM): < 10%
microsomal CLint at 1 μM [1]: < 5.8 µL/min/mg
inhibition at 100 µM (HDAC-3): < 10%
chromatographic logD [2]: -0.64
inhibition at 100 µM (HDAC-8): < 10%
microsomal CLint at 1 μM [3]: < 5.8 µL/min/mg
inhibition at 100 µM (MMP-1; 100 μM): 12 ± 2%
half-life at 1 μM (Plasma stability, mouse): > 2.5 h
inhibition at 100 µM (COX-1): < 10%

Cc1ccc(NC(=O)C(CC(C)C)c2nn[nH]n2)cc1 (stereo not shown) [Compound 3j]
inhibition at 100 µM (LasB): < 10%

Cc1ccc(NC(=O)C(CC(C)C)C(=O)O)cc1 (stereo not shown) [Compound 3e]
inhibition at 100 µM (LasB): 46 ± 3%

CC(C)CC(C(=O)Nc1ccc(C#N)cc1)P(=O)(O)O (stereo not shown) [Compound 4k]
inhibition at 100 µM (TACE): < 10%
inhibition at 100 µM (P. aeruginosa PA14): < 10%
inhibition at 100 µM (MMP-3): 11 ± 5%
IC50 (LasB; LasB IC50, FRET-based assay): ~25 nM
IC50 (LasB; LasB IC50 in presence of 1% pulmonary surfactant, 1% pulmonary surfactant): 85 nM
inhibition at 100 µM (MMP-2): < 10%
microsomal CLint at 1 μM [1]: < 5.8 µL/min/mg
% growth inhibition HEK293 (HEK293): 15 ± 23%
chromatographic logD [2]: -0.87
microsomal CLint at 1 μM [3]: < 5.8 µL/min/mg
inhibition at 100 µM (MMP-1): 10 ± 5%
half-life at 1 μM (Plasma stability, mouse): > 2.5 h
inhibition at 100 µM (COX-1): < 10%

Cc1ccc(NC(=O)[C@H](CC(C)C)NC(=O)OC(C)(C)C)cc1 [Compound 3a]
inhibition at 100 µM (LasB): < 10%
